Data reported in US9598361B1, “Amino substituted acetamide derivative” (KING SAUD UNIVERSITY, priority 2016, dated 2017).
Where two headings read alike, the source gives them in different places.

What was measured:
[1] = tested on: absolute ethanol-induced ulcer; assay: Anti-ulcerogenic activity, absolute ethanol-induced ulcer model; type: in vivo, male Wistar rats; settings: for inhibition in vivo at 100 mg/kg / inhibition in vivo at 50 mg/kg: Rattus norvegicus, po; for score: lesion score 0-5, rats; for inhibition in vivo at 50 mg/kg: read-out: % protection
Method: (§1) The biological activities of the investigational compounds (CP1-8) were investigated as follows. Swiss albino mice of both sexes (26-30 g) and male Wistar rats (180-200 g) were purchased from the animal house of King Saud University, KSA. Animals were housed in standard polypropylene cages with wire mesh top and maintained under standard conditions (temperature 23±1.0° C., humidity 55±10%, 12 h light/12 h dark cycle). They were fed a standard pellet diet with water ad libitum and were allowed to adapt to the laboratory environment for one week before experimentation.
Evaluation of the anti-ulcerogenic activity was carried out using absolute ethanol-induced ulcer model as described by Bighettia et al. (2005). Eighteen male Wistar rats were divided into 3 groups each of 6 rats. Group 1 received the vehicle and served as control ulcer, Group 2 received ranitidine (100 mg/kg) and served as standard, and Groups 3 received the target compound at a dose of 50 mg/kg for CP1-7 and a dose of 100 mg/kg for CP8.
Rats of all groups were fasted for 24 h then all medications were administered orally. One hour after treatment, the animals received an oral dose of absolute ethanol (1 ml/200 g) and then sacrificed one hour later, by ether inhalation, the stomachs were rapidly removed, opened along their greater curvature and gently rinsed under running tap water.
Number of lesions in the glandular part of the stomach were measured under an illuminated magnifying microscope (10×). Long lesions were counted and their lengths were measured. Petechial lesions were counted, and then each five petechial lesions were taken as 1 mm of ulcer.
The lesion scores in the mucosal lesions were quantified by the scoring system (0-5) 0=no damage, 1=Local edema and inflammation without ulcers; 2=One ulcer without inflammation; 3=one to two ulcers with inflammation & lesion diameter <1 cm; 4=More than two ulcers with lesion diameter 1-2 cm; 5=Sever ulceration with lesion diameter >2 cm (Morris et al., 1989).
In order to calculate the Ulcer Index (mm), the sum of the total length of long ulcers and petechial lesions in each group of rats was divided by its number. The curative ratio was determined according to the formula: […]

[2] = tested on: acetic acid induced colitis; assay: Anti-ulcerative colitis activity, acetic acid induced colitis; type: in vivo, rats; settings: for % Protection of control colitis: Table 5, CP8 100 mg/kg; for inhibition in vivo at 50 mg/kg: Rattus norvegicus, po, 120 h, read-out: % Protection; for Wt/l: colon wet weight/length ratio; for effect versus dexamesathone in reducing all colitis parameters (in words): 50 mg/kg versus dexamesathone 0.1 mg/kg
Method: as §1
Groups of animals each of 6 rats were used for assessing the anti-ulcerative colitis activity. The first group received dexamesathone at dose 0.1 mg/kg orally to serve as standard; two other groups received water orally and served as normal control and control colitis. Other groups received the tested compounds CP 1-7 at a dose 50 mg/kg and tested compound CP 8 at a dose of 100 mg/kg. Ulcerative colitis was induced by slowly infusion of 2 mL (4%, v/v) acetic acid in saline into the colon through the catheter. Two hours after the induction of colitis, animals received the 1st dose of all medication, then all groups received medication for 5 consecutive days, two hours after the last dose, animals were sacrificed by ether anesthesia, colonic segments (8 cm in length and 3 cm proximal to the anus) were excised, opened and were used for macroscopic scoring (Awaad et al., 2013).
The colonic lesions were assessed as follows. The colon specimens were weighted and wet weight/length ratio was calculated for all the rats. The specimens were examined under a dissecting microscope and the mucosal lesions were quantified by the scoring system (0-5) given by Awaad et al., (2013) after some modifications. The lesion scores were determined as follows: 0=no damage, 1=Local edema and inflammation without ulcers; 2=One ulcer without inflammation; 3=one to two ulcers with inflammation & lesion diameter <1 cm; 4=More than two ulcers with lesion diameter 1-2 cm; 5=Sever ulceration with lesion diameter >2 cm.
The ulcer area was measured using plane glass square. Each cell on the glass square was 1 mm^2 in area and the number of cells was counted and the ulcer area was determined for each colon. The ulcer index was measured by summing the lesion score and the ulcer area for each colon specimen (Awaad et al, 2013).

[3] = tested on: liver and kidney functions; assay: Effect on liver and kidney functions; type: in vivo, Male Wister rats
Method: The effect on liver and kidney functions using the derivatives were investigated as follows. Male Wister rats were divided into 2 groups, each of 10 rats. The 1st group was left as a control and administered the vehicle orally, while the other group was orally administered the synthesized compounds in a dose of 50 mg/kg (for CP 1-7) or a dose of about 100 mg/kg (for CP 8). After the examination period, 6 h after the last dose blood samples were collected from the orbital plexus of rats. Samples were left to clot at room temperature for 30 min then centrifuged at 1000 rpm for 20 min.
The collected sera were used for determination of the activity of both (AST) aspirate aminotransferase and (ALT) alanine aminotransferase as liver markers. In addition, levels of blood urea, serum creatinine were also estimated as kidney markers (Awaad et al., 2013).

[4] = Table 3, protection of control ulcer, oral 100 mg/kg
[5] = Table 7, rat serum, oral 100 mg/kg, mean ± SD, n = 10
[6] = Table 7, rats, oral 100 mg/kg, mean ± SD, n = 10
[7] = rats, oral 50 mg/kg (CP 1-7) or 100 mg/kg (CP 8)
[8] = Table 2, oral, CP-1-7 50 mg/kg, ranitidine 100 mg/kg
[9] = Table 4, oral 5 days, CP-1-7 50 mg/kg, dexamethasone 0.1 mg/kg
[10] = Table 6, rat serum, oral 50 mg/kg, 6 h after last dose, mean ± SD, n = 10
[11] = Table 6, rats, oral 50 mg/kg, 6 h after last dose, mean ± SD, n = 10
[12] = Table 2, protection of control ulcer, oral, CP-1-7 50 mg/kg, ranitidine 100 mg/kg
[13] = Table 4, protection of control colitis, CP-1-7 50 mg/kg, dexamethasone 0.1 mg/kg

NS(=O)(=O)c1ccc(NC(=O)CNc2ccccc2C(=O)O)cc1 [CP8, 2-(2-Hydroxycarbonylphenylamino)-N-(4-aminosulphonylphenyl)acetamide]
effect versus ranitidine in reducing ulcer index and ulcer score (in words) ([1]; CP8 100 mg/kg versus ranitidine 100 mg/kg): significantly more effective than the standard | inhibition in vivo at 100 mg/kg [1, 4]: 87.1% | score ([1]; Table 3, oral 100 mg/kg): 1.20 | % Protection of control colitis ([2]; dexamethasone 0.1 mg/kg): 64.2% | ALT [3, 5]: 39.70 ± 0.22 U/l | AST [3, 5]: 66.28 ± 0.40 U/l | Blood Urea [3, 6]: 68.60 ± 1.9 mg/dL | Creatinine [3, 6]: 0.86 ± 0.03 mg/dL | liver functions (activity of AST and ALT), hepatotoxic manifestation (in words) [3, 7]: didn't reveal hepatotoxic manifestation | nephrotoxic manifestations (in words) [3, 7]: no apparent nephrotoxic manifestations | liver and kidney functions versus control (in words) ([3]; rats, oral 100 mg/kg, 0.05 level of probability): not affected

N#CC1(c2ccccc2)CCN(CC(=O)Nc2ccc(S(N)(=O)=O)cc2)CC1 [CP-1, 2-[(4-Cyano-4-phenyl)piperidinyl]-N-(4-aminosulphonylphenyl)acetamide]
inhibition in vivo at 50 mg/kg [1]: 55.5% | score [1, 8]: 3.20 | inhibition in vivo at 50 mg/kg [2]: 31.7% | Wt/l [2, 9]: 0.79 ± 0.08 | ALT [3, 10]: 35.77 ± 1.60 U/l | AST [3, 10]: 44.43 ± 1.57 U/l | Serum Creatinine [3, 11]: 0.88 ± 0.03 mg/dL | effect on blood urea concentration (in words) ([3]; rats, oral 50 mg/kg): slightly elevate | melting point: 196 to 198 °C

NS(=O)(=O)c1ccc(NC(=O)CN2CCC(O)(c3ccccc3)CC2)cc1 [CP-2, 2-[(4-Hydroxy-4-phenyl)piperidinyl]-N-(4-aminosulphonylphenyl)acetamide]
inhibition in vivo at 50 mg/kg [1, 12]: 71.9% | score [1, 8]: 3.20 | inhibition in vivo at 50 mg/kg [2, 13]: 49.1% | Wt/l [2, 9]: 0.74 ± 0.02 | ALT ([3]; rat, in vivo, po, 50 mg/kg): 39.70 ± 0.22 U/l | AST ([3]; rat, in vivo, po, 50 mg/kg): 66.28 ± 0.40 U/l | Blood Urea ([3]; rat, in vivo, po, 50 mg/kg): 52.55 ± 1.24 mg/dL | Serum Creatinine ([3]; rat, in vivo, po, 50 mg/kg): 0.86 ± 0.03 mg/dL | melting point: 221 to 223 °C

NS(=O)(=O)c1ccc(NC(=O)CN2CCC(c3ccc(Cl)cc3)CC2)cc1 [CP-3, 2-[4(4-Chlorophenyl)piperidinyl]-N-(4-aminosulphonylphenyl)acetamide]
inhibition in vivo at 50 mg/kg [1, 12]: 90.3% | score [1, 8]: 2.20 | effect versus dexamesathone in reducing all colitis parameters (in words) [2]: significantly more effective than dexamesathone | inhibition in vivo at 50 mg/kg [2, 13]: 64.2% | Wt/l [2, 9]: 0.64 ± 0.05 | ALT [3, 10]: 36.87 ± 1.28 U/l | AST [3, 10]: 44.16 ± 1.57 U/l | Blood Urea [3, 11]: 46.02 ± 1.10 mg/dL | effect on serum creatinine (in words) ([3]; rats, oral 50 mg/kg): slightly elevated | melting point: 270 to 272 °C

NS(=O)(=O)c1ccc(NC(=O)CN2CCC(N3CCCCC3)CC2)cc1 [CP-4, 2-[4-(1-Piperidino)piperidinyl]-N-(4-aminosulphonylphenyl)acetamide]
inhibition in vivo at 50 mg/kg [1, 12]: 97.7% | score [1, 8]: 2.00 | inhibition in vivo at 50 mg/kg [2, 13]: 25.3% | Wt/l [2, 9]: 0.84 ± 0.02 | score ([2]; Table 4, lesion score 0-5, oral 5 days, CP-1-7 50 mg/kg, dexamethasone 0.1 mg/kg): 3.00 ± 0.63 | ALT [3, 10]: 36.87 ± 1.28 U/l | AST [3, 10]: 44.16 ± 1.57 U/l | Blood Urea [3, 11]: 47.96 ± 0.84 mg/dL | effect on serum creatinine (in words) ([3]; rats, oral 50 mg/kg): slightly elevated | melting point: 215 to 217 °C

COc1ccc(C2CCN(CC(=O)Nc3ccc(S(N)(=O)=O)cc3)CC2)cc1 [CP-5, 2-[4(4-Methoxyphenyl)piperidinyl]-N-(4-aminosulphonylphenyl)acetamide]
inhibition in vivo at 50 mg/kg [1, 12]: 83.6% | score [1, 8]: 2.40 | inhibition in vivo at 50 mg/kg [2, 13]: 22.3% | Wt/l [2, 9]: 0.75 ± 0.02 | ALT [3, 10]: 36.35 ± 1.26 U/l | AST [3, 10]: 44.09 ± 1.25 U/l | Blood Urea [3, 11]: 55.92 ± 0.55 mg/dL | Serum Creatinine [3, 11]: 0.86 ± 0.07 mg/dL | melting point: 175 to 177 °C

Cc1cccc(N2CCN(CC(=O)Nc3ccc(S(N)(=O)=O)cc3)CC2)c1C [CP-6, 2-[4(2,3-Xylyl)piperazinyl]-N-(4-aminosulphonylphenyl)acetamide]
inhibition in vivo at 50 mg/kg [1, 12]: 88.5% | score [1, 8]: 3.00 | inhibition in vivo at 50 mg/kg [2, 13]: 30.6% | Wt/l [2, 9]: 0.71 ± 0.05 | ALT [3, 10]: 36.02 ± 1.58 U/l | AST [3, 10]: 44.7 ± 1.66 U/l | Blood Urea [3, 11]: 51.00 ± 0.89 mg/dL | Serum Creatinine [3, 11]: 0.83 ± 0.08 mg/dL | melting point: 241 to 243 °C

Cc1cc(NCC(=O)Nc2ccc(S(N)(=O)=O)cc2)c2ccccc2n1 [CP-7, 2-(2-Methylquinolin-4-ylamino)-N-(4-aminosulphonylphenyl)acetamide]
inhibition in vivo at 50 mg/kg [1, 12]: 64.1% | score [1, 8]: 3.60 | effect versus dexamesathone in reducing all colitis parameters (in words) [2]: significantly more effective than dexamesathone | inhibition in vivo at 50 mg/kg [2, 13]: 66.8% | Wt/l [2, 9]: 0.49 ± 0.02 | ALT [3, 10]: 36.33 ± 1.35 U/l | AST [3, 10]: 46.16 ± 1.48 U/l | Blood Urea [3, 11]: 53.00 ± 0.14 mg/dL | Serum Creatinine [3, 11]: 0.85 ± 0.09 mg/dL | melting point: > 300 °C

C[C@@H]1C[C@H]2[C@@H]3CCC4=CC(=O)C=C[C@]4(C)[C@@]3(F)[C@@H](O)C[C@]2(C)[C@@]1(O)C(=O)CO [Dexamethasone, reference compound]
inhibition in vivo at 50 mg/kg [2, 13]: 59.3% | Wt/l [2, 9]: 0.52 ± 0.07 | % Protection of control colitis ([2]; dexamethasone 0.1 mg/kg): 60%

CNC(=C[N+](=O)[O-])NCCSCc1ccc(CN(C)C)o1 [Ranitidine, ranitidine, reference compound]
inhibition in vivo at 50 mg/kg [1, 12]: 49.2% | inhibition in vivo at 100 mg/kg [1, 4]: 58.8% | score [1, 8]: 2.20 | score ([1]; Table 3, oral 100 mg/kg): 2.20
